Laboratory results taken from publication PMC10046369, “Low-Affinity/High-Selectivity Dopamine Transport Inhibition Sufficient to Rescue Cognitive Functions in the Aging Rat” (Biomolecules, 2023).

What was measured:
Assay in all cases: biochemical
Design in all cases: KINOMEscan competition binding panel, per cent of control
Settings in all cases: read-out: %Ctrl @ 2800nM
HASPIN = HASPIN (Homo sapiens, UniProt Q8TF76)
Procedure: (§1) A panel of binding assays covering 450 human kinases and disease-relevant mutations was performed by DiscoverX (KINOMEscan®, Freemont, CA, USA) according to the standard and validated protocol defined by the contractor. […] Kinase binding assays This study was outsourced to DiscoverX (KINOMEscan®, Freemont, CA, USA) and is compliant with the corresponding project BUY004-01-p-00001. […] Results are reported as percent control (% Ctrl), where lower numbers indicate stronger hits in the matrix on the following page(s). %Ctrl calculation: ((test compound signal-positive control signal) / (negative control signal – positive control signal)) x 100.

PIK3CB = PIK3CB (Homo sapiens, UniProt P42338)
Procedure: as §1

GRK7 = GRK7 (Homo sapiens, UniProt Q8WTQ7)
Procedure: as §1

ACVR1 = ACVR1 (Homo sapiens, UniProt Q04771)
Procedure: as §1

MYO3A = MYO3A (Homo sapiens, UniProt Q8NEV4)
Procedure: as §1

RIPK2 = RIPK2 (Homo sapiens, UniProt O43353)
Procedure: as §1

KIT(L576P) = KIT(L576P) (Homo sapiens, UniProt P10721, L576P)
Procedure: as §1

KIT(V559D,T670I) = KIT(V559D,T670I) (Homo sapiens, UniProt P10721, T670I/V559D)
Procedure: as §1

NEK11 = NEK11 (Homo sapiens, UniProt Q8NG66)
Procedure: as §1

TIE1 = TIE1 (Homo sapiens, UniProt P35590)
Procedure: as §1

PAK6 = PAK6 (Homo sapiens, UniProt Q9NQU5)
Procedure: as §1

MRCKB = target: T1, MRCKB (Homo sapiens, UniProt Q9Y5S2)
T1 construct: gene CDC42BPB
Procedure: as §1

FLT3(ITD,D835V) = FLT3(ITD,D835V) (Homo sapiens, UniProt P36888, D835V/ITD)
Procedure: as §1

IRAK1 = IRAK1 (Homo sapiens, UniProt P51617)
Procedure: as §1

MUSK = MUSK (Homo sapiens, UniProt O15146)
Procedure: as §1

CDC2L5 = target: T2, CDC2L5 (Homo sapiens, UniProt Q14004)
T2 construct: gene CDK13
Procedure: as §1

IRAK3 = IRAK3 (Homo sapiens, UniProt Q9Y616)
Procedure: as §1

DRAK1 = target: T3, DRAK1 (Homo sapiens, UniProt Q9UEE5)
T3 construct: gene STK17A
Procedure: as §1

FGR = FGR (Homo sapiens, UniProt P09769)
Procedure: as §1

CAMK1D = CAMK1D (Homo sapiens, UniProt Q8IU85)
Procedure: as §1

[1] = target: EGFR(L747-S752del, P753S) (Homo sapiens, UniProt P00533, DEL747-752/P753S)
Procedure: as §1

EPHA3 = EPHA3 (Homo sapiens, UniProt P29320)
Procedure: as §1

KIT(D816V) = KIT(D816V) (Homo sapiens, UniProt P10721, D816V)
Procedure: as §1

NEK7 = NEK7 (Homo sapiens, UniProt Q8TDX7)
Procedure: as §1

PAK1 = PAK1 (Homo sapiens, UniProt Q13153)
Procedure: as §1

AXL = AXL (Homo sapiens, UniProt P30530)
Procedure: as §1

Chain of KIT(V559D,T670I) (P10721 whole entry V559D/T670I): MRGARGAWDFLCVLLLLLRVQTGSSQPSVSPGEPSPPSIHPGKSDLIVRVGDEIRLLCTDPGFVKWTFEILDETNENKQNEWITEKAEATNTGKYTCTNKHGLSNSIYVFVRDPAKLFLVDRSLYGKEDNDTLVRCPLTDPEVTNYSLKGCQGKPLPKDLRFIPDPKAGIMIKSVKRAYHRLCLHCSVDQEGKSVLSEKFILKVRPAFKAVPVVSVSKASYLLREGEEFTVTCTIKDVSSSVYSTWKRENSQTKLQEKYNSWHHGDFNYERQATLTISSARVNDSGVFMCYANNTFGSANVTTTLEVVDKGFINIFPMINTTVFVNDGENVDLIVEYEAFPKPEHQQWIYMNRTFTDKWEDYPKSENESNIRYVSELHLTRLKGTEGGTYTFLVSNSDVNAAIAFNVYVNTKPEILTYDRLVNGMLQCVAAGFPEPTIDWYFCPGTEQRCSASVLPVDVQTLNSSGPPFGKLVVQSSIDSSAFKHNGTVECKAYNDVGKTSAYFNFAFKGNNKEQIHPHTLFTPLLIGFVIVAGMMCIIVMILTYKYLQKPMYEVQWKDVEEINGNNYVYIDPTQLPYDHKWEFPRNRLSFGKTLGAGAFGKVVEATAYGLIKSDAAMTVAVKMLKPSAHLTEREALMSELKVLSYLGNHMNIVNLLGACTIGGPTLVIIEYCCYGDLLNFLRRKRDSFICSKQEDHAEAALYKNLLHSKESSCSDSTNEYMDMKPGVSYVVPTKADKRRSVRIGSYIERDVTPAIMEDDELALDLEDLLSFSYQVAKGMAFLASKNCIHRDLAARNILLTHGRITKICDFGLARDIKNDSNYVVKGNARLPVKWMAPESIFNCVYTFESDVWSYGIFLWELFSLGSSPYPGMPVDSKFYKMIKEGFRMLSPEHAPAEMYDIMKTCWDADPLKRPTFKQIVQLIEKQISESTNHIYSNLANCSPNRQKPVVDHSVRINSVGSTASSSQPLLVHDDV
Chain of ACVR1 (Q04771 whole entry): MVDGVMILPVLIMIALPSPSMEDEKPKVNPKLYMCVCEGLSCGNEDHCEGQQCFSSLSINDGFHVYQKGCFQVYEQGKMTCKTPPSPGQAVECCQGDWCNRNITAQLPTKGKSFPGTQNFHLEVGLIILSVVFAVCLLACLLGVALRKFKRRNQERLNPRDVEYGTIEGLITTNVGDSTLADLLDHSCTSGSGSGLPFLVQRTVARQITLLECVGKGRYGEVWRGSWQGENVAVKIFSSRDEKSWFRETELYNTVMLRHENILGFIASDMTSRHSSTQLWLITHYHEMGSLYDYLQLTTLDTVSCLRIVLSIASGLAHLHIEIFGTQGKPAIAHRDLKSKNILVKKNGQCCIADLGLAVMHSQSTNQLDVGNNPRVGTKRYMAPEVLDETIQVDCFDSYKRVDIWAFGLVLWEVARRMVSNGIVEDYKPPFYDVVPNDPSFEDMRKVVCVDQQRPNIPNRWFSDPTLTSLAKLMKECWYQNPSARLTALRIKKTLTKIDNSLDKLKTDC
Chain of PIK3CB (P42338 whole entry): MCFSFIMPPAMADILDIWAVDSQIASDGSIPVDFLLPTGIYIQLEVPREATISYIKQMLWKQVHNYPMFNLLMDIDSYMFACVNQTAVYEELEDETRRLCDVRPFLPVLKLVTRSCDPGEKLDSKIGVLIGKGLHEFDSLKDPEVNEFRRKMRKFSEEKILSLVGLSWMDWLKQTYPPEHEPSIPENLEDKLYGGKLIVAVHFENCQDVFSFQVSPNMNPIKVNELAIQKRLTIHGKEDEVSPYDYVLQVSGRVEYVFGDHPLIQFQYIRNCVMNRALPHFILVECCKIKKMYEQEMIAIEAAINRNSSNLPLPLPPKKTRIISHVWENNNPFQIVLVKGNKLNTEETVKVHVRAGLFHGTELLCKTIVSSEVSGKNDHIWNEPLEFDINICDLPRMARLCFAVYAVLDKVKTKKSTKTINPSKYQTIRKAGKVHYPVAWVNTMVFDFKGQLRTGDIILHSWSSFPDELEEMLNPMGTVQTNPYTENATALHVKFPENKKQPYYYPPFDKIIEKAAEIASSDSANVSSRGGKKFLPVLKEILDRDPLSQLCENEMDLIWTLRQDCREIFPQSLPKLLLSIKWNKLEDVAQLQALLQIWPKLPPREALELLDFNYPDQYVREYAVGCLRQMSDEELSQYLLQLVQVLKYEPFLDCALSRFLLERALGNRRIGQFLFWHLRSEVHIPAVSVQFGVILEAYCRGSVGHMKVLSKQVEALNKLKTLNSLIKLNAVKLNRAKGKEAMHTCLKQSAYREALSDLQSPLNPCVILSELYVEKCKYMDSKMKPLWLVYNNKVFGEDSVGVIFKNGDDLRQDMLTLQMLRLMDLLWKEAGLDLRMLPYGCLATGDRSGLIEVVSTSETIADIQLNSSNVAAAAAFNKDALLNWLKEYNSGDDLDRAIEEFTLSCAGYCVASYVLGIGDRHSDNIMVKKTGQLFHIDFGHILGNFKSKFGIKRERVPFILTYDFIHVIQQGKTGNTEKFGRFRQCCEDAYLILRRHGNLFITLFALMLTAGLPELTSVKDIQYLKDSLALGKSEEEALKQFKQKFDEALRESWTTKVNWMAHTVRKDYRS
Chain of MYO3A (Q8NEV4 whole entry): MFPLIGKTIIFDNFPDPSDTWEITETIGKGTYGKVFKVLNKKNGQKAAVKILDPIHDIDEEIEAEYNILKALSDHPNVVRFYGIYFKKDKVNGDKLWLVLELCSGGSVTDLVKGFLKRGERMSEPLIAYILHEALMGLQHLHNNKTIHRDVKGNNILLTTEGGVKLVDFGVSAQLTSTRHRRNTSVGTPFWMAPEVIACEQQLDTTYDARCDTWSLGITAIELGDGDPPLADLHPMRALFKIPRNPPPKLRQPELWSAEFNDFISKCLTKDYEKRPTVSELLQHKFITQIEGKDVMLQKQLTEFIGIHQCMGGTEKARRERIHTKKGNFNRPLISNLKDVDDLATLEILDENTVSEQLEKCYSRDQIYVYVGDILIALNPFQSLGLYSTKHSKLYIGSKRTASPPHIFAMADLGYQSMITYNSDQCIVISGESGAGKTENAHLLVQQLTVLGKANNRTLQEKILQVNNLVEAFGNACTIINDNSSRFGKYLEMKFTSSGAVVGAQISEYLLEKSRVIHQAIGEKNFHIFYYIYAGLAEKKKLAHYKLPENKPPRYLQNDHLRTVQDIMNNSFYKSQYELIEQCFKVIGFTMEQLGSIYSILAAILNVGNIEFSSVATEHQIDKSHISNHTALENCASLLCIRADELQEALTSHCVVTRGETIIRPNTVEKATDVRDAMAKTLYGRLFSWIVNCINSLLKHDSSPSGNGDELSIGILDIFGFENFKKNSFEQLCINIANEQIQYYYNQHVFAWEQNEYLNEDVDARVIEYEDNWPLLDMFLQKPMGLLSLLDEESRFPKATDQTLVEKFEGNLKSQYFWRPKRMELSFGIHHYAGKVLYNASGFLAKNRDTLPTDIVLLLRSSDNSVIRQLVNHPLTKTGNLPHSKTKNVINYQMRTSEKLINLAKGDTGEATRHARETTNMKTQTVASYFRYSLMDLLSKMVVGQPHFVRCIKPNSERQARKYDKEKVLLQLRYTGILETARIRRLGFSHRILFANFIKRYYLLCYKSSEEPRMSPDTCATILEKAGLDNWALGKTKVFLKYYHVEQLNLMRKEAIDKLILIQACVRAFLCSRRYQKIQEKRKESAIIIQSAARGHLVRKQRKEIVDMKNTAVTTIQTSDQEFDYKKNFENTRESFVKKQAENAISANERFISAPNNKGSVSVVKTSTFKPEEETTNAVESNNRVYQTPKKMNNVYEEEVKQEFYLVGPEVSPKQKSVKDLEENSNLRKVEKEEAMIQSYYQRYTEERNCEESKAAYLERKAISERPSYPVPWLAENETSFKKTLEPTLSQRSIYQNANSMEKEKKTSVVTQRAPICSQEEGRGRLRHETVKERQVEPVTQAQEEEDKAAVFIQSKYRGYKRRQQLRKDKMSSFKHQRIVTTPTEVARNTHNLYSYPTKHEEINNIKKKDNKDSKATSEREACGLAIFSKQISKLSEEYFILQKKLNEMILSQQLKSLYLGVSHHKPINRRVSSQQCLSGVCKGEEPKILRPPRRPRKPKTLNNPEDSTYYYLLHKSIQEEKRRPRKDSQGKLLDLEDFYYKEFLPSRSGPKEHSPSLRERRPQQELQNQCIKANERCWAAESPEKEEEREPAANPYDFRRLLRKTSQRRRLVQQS
Chain of NEK11 (Q8NG66 whole entry): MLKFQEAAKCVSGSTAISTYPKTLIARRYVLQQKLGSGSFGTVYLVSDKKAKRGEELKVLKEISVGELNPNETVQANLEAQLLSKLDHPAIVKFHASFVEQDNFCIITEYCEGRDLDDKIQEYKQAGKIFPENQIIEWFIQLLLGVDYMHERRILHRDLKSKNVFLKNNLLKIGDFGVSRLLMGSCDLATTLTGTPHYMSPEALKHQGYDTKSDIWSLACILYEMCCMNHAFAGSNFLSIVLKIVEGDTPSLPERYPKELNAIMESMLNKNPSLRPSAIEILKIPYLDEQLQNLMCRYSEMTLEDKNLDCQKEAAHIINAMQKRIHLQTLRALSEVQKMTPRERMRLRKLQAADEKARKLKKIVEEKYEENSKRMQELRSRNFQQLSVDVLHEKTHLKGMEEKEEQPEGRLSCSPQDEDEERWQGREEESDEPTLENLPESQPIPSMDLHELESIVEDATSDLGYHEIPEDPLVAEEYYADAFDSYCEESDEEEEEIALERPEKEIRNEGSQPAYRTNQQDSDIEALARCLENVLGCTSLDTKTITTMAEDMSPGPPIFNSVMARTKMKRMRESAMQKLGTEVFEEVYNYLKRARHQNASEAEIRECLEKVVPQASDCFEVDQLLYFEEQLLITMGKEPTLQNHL
Chain of KIT(D816V) (P10721 whole entry D816V): as the sequence (P10721 whole entry V559D/T670I) above, with D559V, I670T, D816V counted along it
Chain of KIT(L576P) (P10721 whole entry L576P): as the sequence (P10721 whole entry V559D/T670I) above, with D559V, L576P, I670T counted along it

How did the remaining binding at 2.8 µM (HASPIN) turn out when `[O-][S@@+](Cc1cncs1)C(c1ccccc1)c1ccccc1` [S-CE-123, (S)-5-((Benzhydrylsulfinyl)Methyl)Thiazole] was run?
The remaining binding at 2.8 µM was 95%.

And the remaining binding at 2.8 µM (PIK3CB)?
Its remaining binding at 2.8 µM is 93%.

And the remaining binding at 2.8 µM (GRK7)?
The remaining binding at 2.8 µM was 90%.

What about the remaining binding at 2.8 µM (ACVR1) of the same compound?
The remaining binding at 2.8 µM was 99%.

And the remaining binding at 2.8 µM (MYO3A)?
Its remaining binding at 2.8 µM is 96%.

And the remaining binding at 2.8 µM (RIPK2)?
The remaining binding at 2.8 µM was 100%.

And the remaining binding at 2.8 µM (KIT(L576P))?
The remaining binding at 2.8 µM was 99%.

And the remaining binding at 2.8 µM (KIT(V559D,T670I))?
The remaining binding at 2.8 µM was 83%.

And the remaining binding at 2.8 µM (NEK11)?
The remaining binding at 2.8 µM was 100%.

What about the remaining binding at 2.8 µM (TIE1) of the same compound?
Its remaining binding at 2.8 µM is 100%.

And the remaining binding at 2.8 µM (PAK6)?
The remaining binding at 2.8 µM was 100%.

And the remaining binding at 2.8 µM (MRCKB)?
Its remaining binding at 2.8 µM is 98%.

And the remaining binding at 2.8 µM (FLT3(ITD,D835V))?
The remaining binding at 2.8 µM was 100%.

What about the remaining binding at 2.8 µM (IRAK1) of the same compound?
Its remaining binding at 2.8 µM is 91%.

What about the remaining binding at 2.8 µM (MUSK) of the same compound?
The remaining binding at 2.8 µM was 100%.

And the remaining binding at 2.8 µM (CDC2L5)?
Its remaining binding at 2.8 µM is 98%.

What about the remaining binding at 2.8 µM (IRAK3) of the same compound?
The remaining binding at 2.8 µM was 96%.

And the remaining binding at 2.8 µM (DRAK1)?
The remaining binding at 2.8 µM was 95%.

And the remaining binding at 2.8 µM (FGR)?
The remaining binding at 2.8 µM was 100%.

And the remaining binding at 2.8 µM (CAMK1D)?
The remaining binding at 2.8 µM was 96%.

And the remaining binding at 2.8 µM [1]?
The remaining binding at 2.8 µM was 96%.

And the remaining binding at 2.8 µM (EPHA3)?
The remaining binding at 2.8 µM was 97%.

And the remaining binding at 2.8 µM (KIT(D816V))?
The remaining binding at 2.8 µM was 97%.

What about the remaining binding at 2.8 µM (NEK7) of the same compound?
Its remaining binding at 2.8 µM is 100%.

What about the remaining binding at 2.8 µM (PAK1) of the same compound?
Its remaining binding at 2.8 µM is 92%.

What about the remaining binding at 2.8 µM (AXL) of the same compound?
The remaining binding at 2.8 µM was 96%.
